Laboratory results published in patent US9572788B2, “Cell permeable inhibitors of anaphase promoting complex” (President and Fellows of Harvard College, priority 2014, dated 2017).

What was measured:
[1] = ProTAME activation analysis (LC/MS) in extract; assay type: in vitro ADME; details: 50 μM in interphase Xenopus extract
Protocol: (§1) ProTAME was added to interphase Xenopus extract at 50 μM or cell growth media at 20 μM. For interphase extract, 800 μl of sample was collected at 0 min, 10 min, 20 min and 30 min after addition of proTAME and diluted to 8 ml with XB. For cell culture, approximately 800,000 cells were collected at 1 h, 2 h and 3 h after addition of proTAME and lysed in 400 μl lysis buffer as described above and subsequently diluted to 4 ml with lysis buffer. The diluted extract or cell lysate was extracted with 1.5 volume of ethyl acetate. The extracts were dried in vacuo and the dry extracts were resuspended in 200 μl of methanol for LC/MS analysis. LC/MS data were obtained using an Agilent series 1200 LC/6130 MS system with a reversed-phase C18 column (Phenomenex Luna C18(2), 4.6 mm×100 mm, 5 μm) and a CH3CN/H2O gradient solvent system beginning with 10% aqueous CH3CN and ending at 100% CH3CN at 20 min. 10 μl of each sample was injected for each analysis.

[2] = tested on: HeLa H2B-GFP cells; assay: Mitotic entry monitored by time-lapse imaging; assay type: cell-based, human; details: for Average time of mitotic entry / Median time of mitotic entry: Fig 4E
[3] = tested on: U2OS-H2B-GFP cells; assay: Fluorescence live cell imaging with survival (Cox) analysis, U2OS; assay type: cell-based, human; details: proTAME 12 μM
Protocol: Mitotic duration and cell fate were determined by manual inspection of the movies and plotted as Kaplan-Meier curves. The hatch marks on the Kaplan-Meier curved indicate mitotic duration endpoints of censored cells. Includes the combined results of five independent experiments. […] Pairwise comparison between proTAME and proTAME+apcin-M tested using a Cox proportional hazards model stratified by date, using data from only the experimental blocks in which both proTAME and proTAME+apcin were tested.
Movies were manually analyzed using Nikon Elements software or Image J.
Plates were inserted into a covered chamber supplied with humidified 5% CO2 and mounted onto a motorized microscope stage (Prior Scientific). […] A Hamamatsu ORCA cooled CCD camera collected the images with 2×2 binning using Nikon Elements software (version 3.0). Movies were manually analyzed using Nikon Elements software or ImageJ. Mitotic duration was defined as the time from nuclear envelope breakdown until anaphase, in the case of normal mitosis, or until exit from prolonged mitosis as indicated by cytoplasmic blebbing accompanied by changes in chromatin as detected by H2B-GFP.
The Cox proportional hazards model is a semiparameteric approach to modeling time-to-event data, in which covariates are assumed to have constant proportional effects over time relative to a baseline hazard function that can take any form. In this case, stratification on “person” (the individual who analyzed the movie) and “date” (the date the assay was run) allow the baseline hazard function to differ across experimental blocks, but assume a fixed effect of treatment across experimental blocks. The model is thus: hi(t|Z=j)=hj(t)exp(β1×apcini+β2×apcinMi+β3×proTAMEi+β4×proTAMEi:apcinMi+β5×proTAMEi:apcini), j=1 . . . […] This model was fit separately to cells treated with control siRNA or Mad2 siRNA. All statistical analysis was carried out in R 3.0.0 using the functions available as part of the survival package.

[4] = tested on: hTERT-RPE1 H2B-GFP cells; assay: Live imaging of mitotic duration in hTERT-RPE1 H2B-GFP cells; assay type: cell-based, human
Protocol: FIG. 18A is a graph and table showing that proTAME induces a mitotic delay in hTERT-RPE1 H2B-GFP cells. Asynchronous hTERT-RPE1 H2B-GFP cells were treated with 0.06% DMSO, 6 μM proTAME or 12 μM proAAME. Cells were imaged at 12 min interval. Cumulative frequency curves of mitotic duration and cell fate distribution are shown.
The imaging plate was mounted onto a motorized stage (Prior ProScan II) on a Nikon TE2000E PFS inverted microscope fitted with an incubation chamber maintained at 37° C. and supplied with 5% CO2. A 20× Plan Apo 0.75 NA or 40× Plan Fluor 0.75 NA objective lens was used as indicated and images were collected with 2×2 binning. DIC or GFP fluorescent images were taken every 12 min (unless otherwise specified) for 36 h with a Hamamatsu ORCA cooled CCD camera and Nikon Elements Software. TIFF files of each image were exported from Elements and used to build stacks and Quicktime movies with Metamorph imaging software (Molecular Devices). For manual analysis, mitotic duration is counted as the time between the first frame of chromosome condensation and the frame of chromosome segregation (anaphase) or decondensation (mitotic exit in the presence of nocodazole) or cell death (chromosomes shrinking to a small bright dot).

[5] = Effect on mitosis in MCF10a cells; assay type: cell-based; details: similar doses
[6] = tested on: HeLa cells; assay: ProTAME activation analysis (LC/MS) in HeLa cells; assay type: in vitro ADME, human; details: 20 μM
Protocol: as §1

[7] = 12 μM proTAME added at 0 hr after release from thymidine block
[8] = 12 μM proTAME added at 2 hrs after release
[9] = 12 μM proTAME added at 4 hrs after release
[10] = 12 μM proTAME added at 6 hrs after release
[11] = 12 μM proTAME added at 8 hrs after release
[12] = Fig S4A, asynchronous hTERT-RPE1 cells, proAAME 12 μM, proTAME 6 μM

COC(=O)[C@H](CCCN/C(=N\C(=O)OCOC(=O)Cc1ccccc1)NC(=O)OCOC(=O)Cc1ccccc1)NS(=O)(=O)c1ccc(C)cc1 [proTAME]
Conversion of prodrug to TAME [1]: rapidly converted to TAME | Average time of mitotic entry [2, 7]: 712.8 min | Median time of mitotic entry [2, 7]: 696 min | Average time of mitotic entry [2, 8]: 669.0 min | Median time of mitotic entry [2, 8]: 660 min | Average time of mitotic entry [2, 9]: 636.6 min | Median time of mitotic entry [2, 9]: 624 min | Average time of mitotic entry [2, 10]: 619.4 min | Median time of mitotic entry [2, 10]: 612 min | Average time of mitotic entry [2, 11]: 622.6 min | Median time of mitotic entry [2, 11]: 612 min | Delay in mitotic entry ([2]; added 6 hour or later after release): did not delay mitotic entry | Delay in mitotic entry ([2]; added during release from a double thymidine block): 2 h | Median mitotic duration ([3]; Table 7, apcin or apcin-M 25 μM): 180 | % rate of mitotic exit ([3]; relative to DMSO control, Cox model, apcin/apcin-M 25 μM): 3.63% | Average mitotic duration [4, 12]: 819.0 min | Median mitotic duration [4, 12]: 522 min | Median mitotic duration ([4]; asynchronous hTERT-RPE1, 6 μM): over 8 h | Effect on mitotic duration [5]: had no effect | Activation of prodrug [6]: activated efficiently in HeLa cells
